Source: patent US5461035A, “Short peptides with insulin activity” (priority 1990, dated 1995)
Residues, ends and D or L forms follow the SMILES beside them.

How the values were obtained:
[1] = system: Rat lipocytes; test: Glucose uptake, D-[U-14C]-glucose, rat lipocytes; type: cell-based; conditions: D-glucose 22 μM
Experimental: (§1) The biological activity of the peptides according to the invention, of the formula I and II, is determined using lipocytes and pieces of diaphragm obtained by dissection from rats. The term tripeptide means Tyr Cys Asn-OH and hexapeptide means acetyl-Leu Glu Asn Tyr Cys Asn-OH. The term "baseline" means the activity without stimulation, insulin means human insulin and dpm means radioactive disintegrations per minute. The term peptid denotes peptides having insulin activity according to the present invention. Rat lipocytes were prepared as follows:
Epididymal adipose tissue (Wistar rat, 160-180 g, no feed restriction) is digested with collagenase, and the resulting single lipocytes are washed several times by flotation.
(§2) The two following tests measure the glucose uptake which can be stimulated by insulin and which requires the functional insulin signal-transmission cascade and glucose transport, irrespective of whether glucose is metabolized by oxidation (glycolysis, pentose phosphate pathway) or not by oxidation. The conversion into lipids, glycogen or membrane-impermeable intermediates (glucose 6-phosphate), but not the production of lactate, is followed.
a) Rat lipocytes are incubated in the presence or absence of insulin or peptide with D-[U-^14 C]-glucose (final concentration of D-glucose 22 μM). The cells are separated from the medium by centrifugation through a silicone oil layer and are reisolated, and the cell-associated radioactivity is determined.

[2] = system: Pieces of diaphragm; test: Glucose uptake, D-[U-14C]-glucose, pieces of diaphragm; type: cell-based, rat; conditions: D-glucose 75 μM
Experimental: as §1
(§3) Preparation of pieces of diaphragm from rats: small pieces of tissue (5 mm diameter) are punched out of hemidiaphragms (Wistar rat, 60-70 g, no feed restriction) washed several times.
as §2
b) Pieces of diaphragm are incubated in the presence or absence of insulin or peptide with D-[U-^14 C]-glucose (final concentration of D-glucose 75 μM). The medium is aspirated out. The pieces of tissue are washed several times and subsequently solubilized by alkali treatment for the determination of radioactivity.

[3] = system: Rat lipocytes; test: Glucose transport, 2-deoxy-D-[1-3H]-glucose, rat lipocytes; type: cell-based; conditions: glucose 0.2 mM
Experimental: Epididymal adipose tissue (Wistar rat, 160-180 g, no feed restriction) is digested with collagenase, and the resulting single lipocytes are washed several times by flotation. Lipocytes and pieces of diaphragm are prepared as in Example 5. The following tests measure exclusively the specific glucose transport which can be stimulated by insulin (facilitated diffusion) through the plasma membrane by means of glucose carriers, including the insulin signal-transmission cascade. Any effect of glucose metabolism on glucose transport is ruled out by using the non-metabolizable glucose analog. a) Rat lipocytes are incubated in the presence or absence of insulin or peptide with 2-deoxy-D-[1-^3 H]-glucose (final concentration of D-glucose 0.2 mM) and L-[1-^14 C]-glucose (not transportable). To determine the radioactivity ([^3 H] and [^14 C]) the cells are separated from the medium by centrifugation through an oil layer. The specific stereoselective glucose transport is calculated as the difference between the total cell-bound radioactivity ([^3 H]-glucose) and the associated radioactivity due to diffusion and non-specific effects ([C]-glucose).

[4] = system: Pieces of diaphragm; test: Glucose transport, 2-deoxy-D-[1-3H]-glucose, pieces of diaphragm; type: cell-based, rat; conditions: glucose 0.1 mM
Experimental: as §3
Lipocytes and pieces of diaphragm are prepared as in Example 5. The following tests measure exclusively the specific glucose transport which can be stimulated by insulin (facilitated diffusion) through the plasma membrane by means of glucose carriers, including the insulin signal-transmission cascade. Any effect of glucose metabolism on glucose transport is ruled out by using the non-metabolizable glucose analog.
b) Pieces of diaphragm are incubated in the presence or absence of insulin or peptide with 2-deoxy-D-[1-^3 H]-glucose (final concentration of D-glucose 0.1 mM) and L-[1-^14 C]-glucose. The pieces of tissue are separated from the medium by rapid filtration through glass fiber filters and are thoroughly washed. The radioactivity is measured in an alkaline extract.

[5] = system: Rat lipocytes; test: Esterification in vitro of glycerol 3-phosphate in saponin-permeabilized lipocytes; type: cell-based
Experimental: This test measures the esterification of glycerol 3-phosphate which can be stimulated by insulin in lipid products (triglycerides, phospholipids). The enzymes of lipid synthesis (for example acyl-CoA: L-glycerol 3-phosphate acyltransferase) are involved in this, including a functional insulin signal-transmission cascade. […] The incubation is continued after addition of L-[U-^14 C]-glycerol 3-phosphate. Toluene-soluble scintillation cocktail is added and the lipid is separated from the aqueous phase by centrifugation. The toluene phase containing the lipid is removed and its radioactivity is determined.

[6] = system: Rat lipocytes; test: Lipogenesis in trypsin-treated rat lipocytes (insulin receptor inactivated); type: cell-based
Experimental: Rat lipocytes from Example 5 are treated with low concentrations of trypsin to inactivate the insulin receptor by proteolysis. After addition of protease inhibitors, the cells are washed twice by flotation, and the incubation is continued at 37° C. for 15 min. These cells are then used for the test of stimulation of lipogenesis by the peptides. […] This means that this test measures stimulation of lipogenesis owing to interventions in the insulin signal-transmission cascade after receptor binding of insulin.

[7] = system: Balb-C mice; test: Blood glucose profile in mice; type: in vivo; conditions: intravenous
Experimental: Female Charles River Wiga Balb-C mice weighing 17 to 21 g (about 30 days old) receive a standard diet. The mice receive no food for 16 hours before the start of the experiment. 5 animals in each experimental group receive intravenous administration of an aqueous solution (pH 6) of the compound from Example 4 (octapeptide). Volume administered 0.3 ml/animal.
The average for each experimental group is indicated in each case.

Molecule: NC(=O)C[C@H](NC(=O)[C@H](CS)NC(=O)[C@@H](N)Cc1ccc(O)cc1)C(=O)O [Tripeptide, H-Tyr-Cys-Asn-OH] (H-Tyr-Cys-Asn-OH)
- Glucose uptake ([1]; peptide 0.1 Mm): 1838 dpm
- Glucose uptake ([1]; peptide 0.5 Mm): 2947 dpm
- Glucose uptake ([1]; peptide 1 Mm): 6533 dpm
- Glucose uptake ([2]; peptide 0.1 Mm): 7591 dpm
- Glucose uptake ([2]; peptide 0.5 Mm): 8540 dpm
- Glucose uptake ([2]; peptide 1 Mm): 11588 dpm
- Glucose transport ([3]; peptide 0.1 Mm): 2289 dpm
- Glucose transport ([3]; peptide 0.5 Mm): 3055 dpm
- Glucose transport ([3]; peptide 1 Mm): 5781 dpm
- Glucose transport ([4]; peptide 0.1 Mm): 8836 dpm
- Glucose transport ([4]; peptide 0.5 Mm): 9822 dpm
- Glucose transport ([4]; peptide 1 Mm): 11252 dpm
- Esterification with lipocytes ([5]; peptide 0.5 mM): 4422 dpm
- Esterification with lipocytes ([5]; peptide 0.1 Mm): 3710 dpm
- Esterification with lipocytes ([5]; peptide 1 Mm): 5398 dpm
- Lipogenesis ([6]; peptide 0.5 mM): 4145 dpm
- Lipogenesis ([6]; peptide 0.1 Mm): 3250 dpm
- Lipogenesis ([6]; peptide 1 Mm): 5072 dpm

Molecule: Ac-LENYCN-OH [Hexapeptide, Acetyl-Leu-Glu-Asn-Tyr-Cys-Asn-OH]
- Glucose uptake ([1]; peptide 0.1 Mm): 1488 dpm
- Glucose uptake ([1]; peptide 0.5 Mm): 1917 dpm
- Glucose uptake ([1]; peptide 1 Mm): 4218 dpm
- Glucose uptake ([2]; peptide 0.1 Mm): 7429 dpm
- Glucose uptake ([2]; peptide 0.5 Mm): 7752 dpm
- Glucose uptake ([2]; peptide 1 Mm): 8597 dpm
- Glucose transport ([3]; peptide 0.1 Mm): 2218 dpm
- Glucose transport ([3]; peptide 0.5 Mm): 2842 dpm
- Glucose transport ([3]; peptide 1 Mm): 3922 dpm
- Glucose transport ([4]; peptide 0.1 Mm): 8450 dpm
- Glucose transport ([4]; peptide 0.5 Mm): 8928 dpm
- Glucose transport ([4]; peptide 1 Mm): 9676 dpm

Molecule: H-Tyr(Bu^t)-Gln-Leu-Glu(OBu^t)-Asn-Tyr(Bu^t)-Cys(Trt-Asn-Obu^t.HBr [Octapeptide]
- Blood glucose level, percentage difference to control group ([7]; 500 μg/animal, 20 minutes): -2%
- Blood glucose level, percentage difference to control group ([7]; 500 μg/animal, 40 minutes): -5%
- Blood glucose level, percentage difference to control group ([7]; 500 μg/animal, 60 minutes): -13%
- Blood glucose level, percentage difference to control group ([7]; 500 μg/animal, 75 minutes): -21%
- Blood glucose level, percentage difference to control group ([7]; 500 μg/animal, 90 minutes): -21%
- Blood glucose level, percentage difference to control group ([7]; 1000 μg/animal, 20 minutes): -31%
- Blood glucose level, percentage difference to control group ([7]; 1000 μg/animal, 40 minutes): -19%
- Blood glucose level, percentage difference to control group ([7]; 1000 μg/animal, 60 minutes): -23%
- Blood glucose level, percentage difference to control group ([7]; 1000 μg/animal, 75 minutes): -24%
- Blood glucose level, percentage difference to control group ([7]; 1000 μg/animal, 90 minutes): -19%

Molecule: Insulin: insulin means human insulin
- Glucose uptake ([1]; insulin 0.5 ng): 4379 dpm
- Glucose uptake ([1]; insulin 5 ng): 26312 dpm
- Glucose uptake ([2]; insulin 0.5 ng): 10055 dpm
- Glucose uptake ([2]; insulin 5 ng): 20841 dpm
- Glucose transport ([3]; insulin 0.5 ng): 4851 dpm
- Glucose transport ([3]; insulin 5 ng): 20342 dpm
- Glucose transport ([4]; insulin 0.5 ng): 10828 dpm
- Glucose transport ([4]; insulin 5 ng): 17750 dpm
- Esterification with lipocytes ([5]; insulin 5 ng): 3640 dpm
- Lipogenesis ([6]; insulin 5 ng): 3087 dpm
